Reference: article PMC5791972 (PLoS ONE, 2018)
Where “and” joins values, the source holds several entries; their conditions need not be identical. Equal values may be shown once. Starred links: 1 amine or outer side, 2 acyl side, 3 side chain; linkers in the order of their positions; H or OH if unused. Positions of bridges follow the written chain, without caps; N, C: chain ends. Residues, ends and D or L forms follow the SMILES beside them. X1 = O=C(CC1(S[*:2])CCCCC1)[*:1]

Experiments:
[1] = target: GABAB(1b) (h) (Homo sapiens, UniProt Q9UBS5)
[2] = target: MMP-9 (h) (Homo sapiens, UniProt P14780); assay: biochemical; assay type: biochemical
[3] = target: T1, BLT1 (LTB4) (h) (Homo sapiens, UniProt Q15722); assay type: binding
T1 construct: host or cells: CHO cells

[4] = target: T2, 5-HT3 (h) (Homo sapiens, UniProt P46098)
T2 sequence (P46098 24-478): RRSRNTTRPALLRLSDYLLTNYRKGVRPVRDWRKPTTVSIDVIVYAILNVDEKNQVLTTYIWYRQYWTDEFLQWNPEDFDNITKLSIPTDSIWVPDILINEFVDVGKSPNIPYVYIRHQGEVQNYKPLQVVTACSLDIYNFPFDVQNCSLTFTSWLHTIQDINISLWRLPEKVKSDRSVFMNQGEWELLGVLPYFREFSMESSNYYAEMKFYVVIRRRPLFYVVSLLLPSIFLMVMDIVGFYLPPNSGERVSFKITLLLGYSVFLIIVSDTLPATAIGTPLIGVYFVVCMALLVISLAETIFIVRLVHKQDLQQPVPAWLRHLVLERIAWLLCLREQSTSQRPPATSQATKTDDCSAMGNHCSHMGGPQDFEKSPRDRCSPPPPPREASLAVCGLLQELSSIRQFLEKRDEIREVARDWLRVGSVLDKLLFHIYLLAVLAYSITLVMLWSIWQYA

[5] = tested on: NMRI mice; assay: Locomotor activity; assay type: in vivo, mouse; conditions: 5 mg/kg subcutaneously
Method: NMRI mice were habituated to their room for at least 2 weeks after the delivery and kept under standard conditions in groups of 4–5 animals per cage. Food and water were available ad libitum.
Spontaneous motility and rearing were measured by an automated system (Coulbourn Instruments, USA). Animals were introduced into transparent square cages (40 cm length) that are equipped with 2 light barrier systems in order to monitor the movements as well as rearing behavior automatically. The movements of the animals were recorded for 30 minutes. At the end of the experiment, the animals were sacrificed via isofluorane inhalation and subsequent decapitation.

[6] = target: p38α kinase (h) (Homo sapiens, UniProt Q16539); assay: enzyme assay; assay type: biochemical
[7] = target: T3, V1a (h) (Homo sapiens, UniProt P37288); assay type: binding
T3 construct: host or cells: CHO cells

[8] = target: T4, H2 (h) (Homo sapiens, UniProt P25021); assay type: binding
T4 construct: host or cells: CHO cells

[9] = target: Ca2+ channel (L, diltiazem site) (benzothiazepines) (Rattus norvegicus, UniProt P22002); assay type: binding
[10] = target: PDE5 (h) (non-selective) (Homo sapiens, UniProt O76074)
[11] = tested on: CD-1 mice; assay: Forced swim test; conditions: 20 mg/kg IP, 45 min prior, CD-1 mice
[12] = target: T5, 5-HT transporter (h) (Homo sapiens, UniProt P31645); assay type: binding
T5 construct: host or cells: CHO cells

[13] = target: T6, 5-HT2A (h) (Homo sapiens, UniProt P28223); assay type: binding
T6 construct: host or cells: HEK-293 cells

[14] = target: T7, MT1 (ML1A) (h) (Homo sapiens, UniProt P48039); assay type: binding
T7 construct: host or cells: CHO cells

[15] = target: T8, MT3 (ML2) (Mesocricetus auratus, UniProt A0ABM2YAB8); assay type: binding, hamster
T8 construct: tissue Cerep; host or cells: hamster brain
T8 sequence (A0ABM2YAB8 1-231): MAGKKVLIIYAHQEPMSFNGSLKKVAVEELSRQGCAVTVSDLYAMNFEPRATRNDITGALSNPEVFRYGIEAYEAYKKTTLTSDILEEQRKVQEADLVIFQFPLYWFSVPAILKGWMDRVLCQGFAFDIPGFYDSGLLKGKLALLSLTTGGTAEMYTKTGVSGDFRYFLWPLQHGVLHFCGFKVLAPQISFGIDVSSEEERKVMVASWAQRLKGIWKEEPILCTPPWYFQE

[16] = target: T9, M2 (h) (Homo sapiens, UniProt P08172)
T9 sequence (P08172 1-466): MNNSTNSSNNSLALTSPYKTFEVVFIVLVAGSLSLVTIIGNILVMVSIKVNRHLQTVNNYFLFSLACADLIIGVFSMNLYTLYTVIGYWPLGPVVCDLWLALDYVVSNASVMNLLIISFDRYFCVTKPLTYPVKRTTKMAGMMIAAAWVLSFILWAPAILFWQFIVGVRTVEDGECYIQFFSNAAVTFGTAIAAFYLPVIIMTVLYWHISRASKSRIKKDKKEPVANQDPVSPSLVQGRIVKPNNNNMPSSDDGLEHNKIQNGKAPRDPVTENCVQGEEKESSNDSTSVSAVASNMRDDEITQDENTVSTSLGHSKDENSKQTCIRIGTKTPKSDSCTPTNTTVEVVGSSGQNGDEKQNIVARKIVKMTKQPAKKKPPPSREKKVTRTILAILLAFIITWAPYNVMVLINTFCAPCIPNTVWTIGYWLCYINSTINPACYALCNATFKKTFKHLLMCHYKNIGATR

[17] = target: PDE3A (h) (Homo sapiens, UniProt Q14432); assay: biochemical
[18] = target: ATPase (Na+/K+); assay: enzyme assay; assay type: biochemical, porcine
[19] = target: T10, ZAP70 kinase (h) (Homo sapiens, UniProt P43403); assay: biochemical
T10 construct: host or cells: insect cells
T10 sequence (P43403 1-619): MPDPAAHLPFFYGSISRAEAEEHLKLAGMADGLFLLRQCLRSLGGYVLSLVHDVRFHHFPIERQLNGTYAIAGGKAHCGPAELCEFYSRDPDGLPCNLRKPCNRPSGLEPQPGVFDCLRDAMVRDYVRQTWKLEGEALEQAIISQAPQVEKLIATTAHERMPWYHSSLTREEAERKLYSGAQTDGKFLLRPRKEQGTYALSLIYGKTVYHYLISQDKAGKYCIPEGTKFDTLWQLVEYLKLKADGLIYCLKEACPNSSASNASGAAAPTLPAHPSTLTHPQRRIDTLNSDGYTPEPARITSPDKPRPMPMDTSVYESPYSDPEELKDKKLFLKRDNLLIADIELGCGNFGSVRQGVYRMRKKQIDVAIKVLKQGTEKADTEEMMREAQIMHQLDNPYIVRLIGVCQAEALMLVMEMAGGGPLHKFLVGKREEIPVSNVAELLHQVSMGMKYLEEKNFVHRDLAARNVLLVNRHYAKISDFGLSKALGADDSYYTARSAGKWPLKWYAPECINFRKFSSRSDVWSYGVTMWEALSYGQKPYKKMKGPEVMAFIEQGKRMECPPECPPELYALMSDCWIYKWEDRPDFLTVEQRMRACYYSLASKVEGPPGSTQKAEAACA

[20] = target: T11, FLT-1 kinase (h) (VEGFR1) (Homo sapiens, UniProt P17948); assay: enzyme assay; assay type: biochemical
T11 construct: host or cells: Sf9 cells

[21] = target: Ca2+ channel (N) (Rattus norvegicus, UniProt Q02294); assay: biochemical; assay type: binding
[22] = target: D2S (h) (Homo sapiens, UniProt P14416)
D2S (h), sequence (P14416 1-414 isoform P14416-2): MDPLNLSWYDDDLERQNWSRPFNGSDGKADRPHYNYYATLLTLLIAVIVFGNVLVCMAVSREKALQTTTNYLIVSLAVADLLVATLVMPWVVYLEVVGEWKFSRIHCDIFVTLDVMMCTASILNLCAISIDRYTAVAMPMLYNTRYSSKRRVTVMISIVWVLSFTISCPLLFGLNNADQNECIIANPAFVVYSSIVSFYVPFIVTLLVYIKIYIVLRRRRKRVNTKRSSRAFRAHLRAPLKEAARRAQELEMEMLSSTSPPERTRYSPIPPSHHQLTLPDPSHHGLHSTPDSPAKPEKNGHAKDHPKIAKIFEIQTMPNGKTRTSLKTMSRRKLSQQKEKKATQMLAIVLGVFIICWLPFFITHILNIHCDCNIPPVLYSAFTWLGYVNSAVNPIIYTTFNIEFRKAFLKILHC

T5 sequence (P31645 whole entry): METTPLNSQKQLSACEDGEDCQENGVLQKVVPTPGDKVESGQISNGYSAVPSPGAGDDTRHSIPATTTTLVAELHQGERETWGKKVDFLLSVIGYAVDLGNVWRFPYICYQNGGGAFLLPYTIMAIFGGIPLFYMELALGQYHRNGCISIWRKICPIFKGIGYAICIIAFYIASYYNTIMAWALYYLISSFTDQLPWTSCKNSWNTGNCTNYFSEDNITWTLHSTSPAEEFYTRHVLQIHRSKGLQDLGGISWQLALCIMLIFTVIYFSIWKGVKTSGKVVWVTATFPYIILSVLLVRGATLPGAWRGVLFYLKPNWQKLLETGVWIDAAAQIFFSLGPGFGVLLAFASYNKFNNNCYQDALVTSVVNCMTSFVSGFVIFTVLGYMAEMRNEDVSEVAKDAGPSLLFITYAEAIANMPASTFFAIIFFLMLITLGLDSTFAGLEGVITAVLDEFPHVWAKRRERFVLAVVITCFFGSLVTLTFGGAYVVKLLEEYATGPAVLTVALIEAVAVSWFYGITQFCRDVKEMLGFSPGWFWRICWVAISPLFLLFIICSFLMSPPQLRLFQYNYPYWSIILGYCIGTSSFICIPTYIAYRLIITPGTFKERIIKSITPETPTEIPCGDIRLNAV
T7 sequence (P48039 whole entry): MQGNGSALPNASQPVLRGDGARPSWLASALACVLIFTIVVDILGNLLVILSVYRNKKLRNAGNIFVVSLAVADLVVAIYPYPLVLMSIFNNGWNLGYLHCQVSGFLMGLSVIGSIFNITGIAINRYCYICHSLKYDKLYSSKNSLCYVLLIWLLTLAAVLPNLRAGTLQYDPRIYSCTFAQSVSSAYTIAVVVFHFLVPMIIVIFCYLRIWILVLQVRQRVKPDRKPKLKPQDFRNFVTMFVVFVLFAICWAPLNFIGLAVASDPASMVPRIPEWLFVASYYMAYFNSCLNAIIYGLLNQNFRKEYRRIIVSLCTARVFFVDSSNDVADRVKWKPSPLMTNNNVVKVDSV
T3 sequence (P37288 whole entry): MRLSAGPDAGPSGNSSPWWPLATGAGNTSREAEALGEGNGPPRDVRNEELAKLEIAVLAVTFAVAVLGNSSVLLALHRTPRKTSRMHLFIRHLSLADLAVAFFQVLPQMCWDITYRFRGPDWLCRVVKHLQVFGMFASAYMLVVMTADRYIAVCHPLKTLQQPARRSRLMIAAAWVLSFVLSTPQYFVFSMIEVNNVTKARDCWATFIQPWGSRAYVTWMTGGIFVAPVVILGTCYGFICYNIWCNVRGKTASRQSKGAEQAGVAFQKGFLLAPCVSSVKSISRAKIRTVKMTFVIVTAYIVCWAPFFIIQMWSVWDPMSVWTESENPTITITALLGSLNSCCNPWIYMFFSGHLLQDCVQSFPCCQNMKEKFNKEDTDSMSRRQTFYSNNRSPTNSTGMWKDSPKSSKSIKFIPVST
T1 sequence (Q15722 whole entry): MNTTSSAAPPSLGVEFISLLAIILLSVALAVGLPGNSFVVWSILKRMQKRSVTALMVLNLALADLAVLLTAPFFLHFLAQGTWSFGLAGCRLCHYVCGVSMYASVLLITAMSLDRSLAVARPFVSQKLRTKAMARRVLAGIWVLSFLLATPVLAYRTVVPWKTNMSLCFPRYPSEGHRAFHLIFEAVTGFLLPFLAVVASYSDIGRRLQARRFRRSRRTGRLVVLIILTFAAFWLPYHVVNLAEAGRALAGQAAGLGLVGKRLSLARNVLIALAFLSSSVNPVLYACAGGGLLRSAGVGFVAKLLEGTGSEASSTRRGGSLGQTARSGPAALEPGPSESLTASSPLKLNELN
T4 sequence (P25021 whole entry): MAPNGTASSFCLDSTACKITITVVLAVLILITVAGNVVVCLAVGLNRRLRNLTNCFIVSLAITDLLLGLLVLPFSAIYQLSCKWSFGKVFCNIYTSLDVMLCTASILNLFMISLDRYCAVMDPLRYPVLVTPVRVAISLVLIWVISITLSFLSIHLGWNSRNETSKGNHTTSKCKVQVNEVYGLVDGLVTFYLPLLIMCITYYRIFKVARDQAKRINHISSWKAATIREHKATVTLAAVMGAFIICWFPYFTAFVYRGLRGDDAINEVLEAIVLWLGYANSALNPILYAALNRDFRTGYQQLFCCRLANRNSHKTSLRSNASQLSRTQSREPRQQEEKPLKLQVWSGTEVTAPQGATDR
MMP-9 (h), sequence (P14780 94-707): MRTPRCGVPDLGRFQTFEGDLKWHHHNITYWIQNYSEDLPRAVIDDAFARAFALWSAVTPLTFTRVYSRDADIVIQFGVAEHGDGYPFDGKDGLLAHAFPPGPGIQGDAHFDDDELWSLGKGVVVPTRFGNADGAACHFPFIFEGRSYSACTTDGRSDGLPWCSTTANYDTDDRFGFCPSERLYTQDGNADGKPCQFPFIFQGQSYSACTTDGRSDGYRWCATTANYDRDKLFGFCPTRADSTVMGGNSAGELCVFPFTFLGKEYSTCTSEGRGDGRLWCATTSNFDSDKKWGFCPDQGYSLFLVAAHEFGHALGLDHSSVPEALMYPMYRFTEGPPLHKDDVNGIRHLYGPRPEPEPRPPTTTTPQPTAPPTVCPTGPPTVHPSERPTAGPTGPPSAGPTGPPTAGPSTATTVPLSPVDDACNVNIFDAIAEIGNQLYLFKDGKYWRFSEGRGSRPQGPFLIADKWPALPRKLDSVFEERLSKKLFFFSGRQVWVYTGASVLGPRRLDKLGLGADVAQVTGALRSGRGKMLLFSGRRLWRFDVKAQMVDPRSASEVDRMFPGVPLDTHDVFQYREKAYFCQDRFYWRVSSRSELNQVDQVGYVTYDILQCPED
PDE3A (h), sequence (Q14432 whole entry): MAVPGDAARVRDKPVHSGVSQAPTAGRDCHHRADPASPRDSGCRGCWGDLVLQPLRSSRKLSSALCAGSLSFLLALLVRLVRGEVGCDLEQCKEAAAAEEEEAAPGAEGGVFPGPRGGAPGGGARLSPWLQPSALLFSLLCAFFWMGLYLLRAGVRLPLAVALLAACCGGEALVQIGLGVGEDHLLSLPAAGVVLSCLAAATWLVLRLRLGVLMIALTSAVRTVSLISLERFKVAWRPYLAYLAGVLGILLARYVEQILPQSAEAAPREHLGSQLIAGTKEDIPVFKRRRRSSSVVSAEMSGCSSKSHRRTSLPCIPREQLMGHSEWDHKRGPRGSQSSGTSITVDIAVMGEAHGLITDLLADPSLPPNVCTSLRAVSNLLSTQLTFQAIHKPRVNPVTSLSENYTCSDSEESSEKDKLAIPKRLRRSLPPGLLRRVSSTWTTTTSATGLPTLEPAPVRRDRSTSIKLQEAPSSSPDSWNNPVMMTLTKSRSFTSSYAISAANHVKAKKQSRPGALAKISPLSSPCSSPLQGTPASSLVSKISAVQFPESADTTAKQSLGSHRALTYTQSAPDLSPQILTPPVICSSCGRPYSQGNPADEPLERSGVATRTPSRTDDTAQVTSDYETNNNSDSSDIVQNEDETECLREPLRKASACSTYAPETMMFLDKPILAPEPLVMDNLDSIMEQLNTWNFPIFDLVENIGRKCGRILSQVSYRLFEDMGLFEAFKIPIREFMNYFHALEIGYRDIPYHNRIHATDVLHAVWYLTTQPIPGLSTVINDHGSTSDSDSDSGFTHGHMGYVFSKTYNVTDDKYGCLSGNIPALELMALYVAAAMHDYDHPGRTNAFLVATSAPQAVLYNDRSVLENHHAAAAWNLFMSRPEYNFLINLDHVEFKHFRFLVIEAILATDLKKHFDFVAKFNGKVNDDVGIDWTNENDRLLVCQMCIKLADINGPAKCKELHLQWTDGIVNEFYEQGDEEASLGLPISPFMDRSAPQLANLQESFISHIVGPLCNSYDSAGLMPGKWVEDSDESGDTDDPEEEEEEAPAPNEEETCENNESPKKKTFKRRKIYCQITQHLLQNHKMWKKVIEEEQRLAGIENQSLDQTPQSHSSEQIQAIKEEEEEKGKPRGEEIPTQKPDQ
T6 sequence (P28223 whole entry): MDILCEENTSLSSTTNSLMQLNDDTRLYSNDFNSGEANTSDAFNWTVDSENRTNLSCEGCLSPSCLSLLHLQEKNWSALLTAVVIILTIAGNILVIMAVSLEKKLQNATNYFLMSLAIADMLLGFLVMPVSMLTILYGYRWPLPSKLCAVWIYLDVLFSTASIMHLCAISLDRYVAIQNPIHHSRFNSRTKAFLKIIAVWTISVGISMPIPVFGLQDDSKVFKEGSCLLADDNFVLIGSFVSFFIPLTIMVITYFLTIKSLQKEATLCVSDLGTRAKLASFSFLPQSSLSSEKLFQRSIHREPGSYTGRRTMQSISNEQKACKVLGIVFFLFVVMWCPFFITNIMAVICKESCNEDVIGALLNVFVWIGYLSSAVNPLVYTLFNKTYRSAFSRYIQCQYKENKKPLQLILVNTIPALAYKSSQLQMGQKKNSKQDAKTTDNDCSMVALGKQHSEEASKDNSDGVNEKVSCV

## C[C@H](NC[C@H](O)CP(=O)(O)CC1CCCCC1)c1ccc(Cl)c(Cl)c1 [CGP 54626]
[1]
  nH: 0.9

## CNC(=O)[C@H](Cc1c[nH]c2ccccc12)NC(=O)[C@@H](CC(=O)NO)CC(C)C [GM6001, reference compound]
[2]
  nH: 1.6

## CCCCC/C=C\C[C@@H](O)/C=C/C=C/C=C\[C@@H](O)CCCC(=O)O [LTB4, reference compound]
[3]
  nH: 0.8

## CN1[C@@H]2CC[C@H]1C[C@@H](OC(=O)c1cc(Cl)cc(Cl)c1)C2 [MDL 72222]
[4]
  nH: 1.1

## c1ccc(C2(N3CCCCC3)CCCCC2)cc1 [PCP, Phencyclidine, reference compound]
[5]
  locomotor activity: substantially increased activity

## Oc1ccc(-c2nc(-c3ccncc3)c(-c3ccc(F)cc3)[nH]2)cc1 [SB202190, reference compound]
[6]
  nH: 1.4

## COc1ccc(C[C@@H]2NC(=O)CC3(CCCCC3)SSC[C@@H](C(=O)N3CCC[C@H]3C(=O)N[C@@H](CCCNC(=N)N)C(=O)NCC(N)=O)NC(=O)[C@H](CC(N)=O)NC(=O)[C@H](CCC(N)=O)NC(=O)[C@H](Cc3ccccc3)NC2=O)cc1 [[d(CH2)51,Tyr(Me)2]-AVP, reference compound] (Y(Me)FQNCPRG-NH2; linker N-5 via X1 (inferred))
[7]
  nH: 0.9

## CN/C(=N/CCSCc1nc[nH]c1C)NC#N [cimetidine, reference compound]
[8]
  nH: 0.9

## COc1ccc([C@@H]2Sc3ccccc3N(CCN(C)C)C(=O)[C@@H]2OC(C)=O)cc1 [diltiazem, reference compound]
[9]
  nH: 1.2

## OCCN(CCO)c1nc(N2CCCCC2)c2nc(N(CCO)CCO)nc(N3CCCCC3)c2n1 [dipyridamole]
[10]
  nH: 1.7 and 1.0

## CN(C)CCCN1c2ccccc2CCc2ccccc21 [imipramine, reference compound]
[11]
  immobility time: decreased immobility time
[12]
  nH: 0.9

## O=C(c1ccc(F)cc1)C1CCN(CCn2c(=O)[nH]c3ccccc3c2=O)CC1 [ketanserin, reference compound]
[13]
  nH: 1.4

## COc1ccc2[nH]cc(CCNC(C)=O)c2c1 [melatonin, reference compound]
[14]
  nH: 1.0
[15]
  IC50: 38 nM and 260 nM
  Ki: 37 nM and 250 nM

## COc1ccccc1CNCCCCCCNCCCCCCCCNCCCCCCNCc1ccccc1OC [methoctramine]
[16]
  nH: 0.9

## Cc1[nH]c(=O)c(C#N)cc1-c1ccncc1 [milrinone, reference compound]
[17]
  nH: 1.0

## C[C@@H]1O[C@@H](O[C@H]2C[C@@H](O)[C@]3(CO)[C@H]4[C@H](O)C[C@]5(C)[C@@H](C6=CC(=O)OC6)CC[C@]5(O)[C@@H]4CC[C@]3(O)C2)[C@H](O)[C@H](O)[C@H]1O [ouabain, reference compound]
[18]
  IC50: 1200 nM

## CN[C@@H]1C[C@H]2O[C@@](C)([C@@H]1OC)n1c3ccccc3c3c4c(c5c6ccccc6n2c5c31)C(=O)NC4 [staurosporine, reference compound]
[19]
  nH: 1.2
[20]
  nH: 1.4

## C[C@@H](O)[C@@H]1NC(=O)[C@H](Cc2ccc(O)cc2)NC(=O)[C@@H]2C[C@@H](O)CN2C(=O)[C@H](CC(N)=O)NC(=O)[C@@H]2CSSC[C@@H]3NC(=O)[C@H](CO)NC(=O)[C@H](CO)NC(=O)CNC(=O)[C@@H]4C[C@@H](O)CN4C(=O)[C@H](CO)NC(=O)[C@H](CCCCN)NC(=O)[C@@H](N)CSSC[C@H](NC(=O)[C@H](CSSC[C@@H](C(=O)N[C@@H](Cc4ccc(O)cc4)C(N)=O)NC(=O)[C@H](CCCN=C(N)N)NC(=O)[C@H](CCCCN)NC1=O)NC(=O)[C@H](CC(N)=O)NC(=O)[C@H](Cc1ccc(O)cc1)NC(=O)[C@H](CO)NC(=O)[C@H]([C@@H](C)O)NC(=O)[C@@H]1C[C@@H](O)CN1C(=O)[C@H](CO)NC3=O)C(=O)N[C@@H](CCCN=C(N)N)C(=O)N[C@@H](CO)C(=O)N2 [ω-conotoxin GVIA, reference compound]
[21]
  IC50: 0.0012 nM

## (+)butaclamol
[22]
  nH: 1.1
